With `Oc1ccc(-c2ccccc2)cc1` [4-phenylphenol], the flash point was determined as 166.00 °C. With `CC(C)(C)c1ccc(O)cc1` [4-tert-butylphenol] the figure was 113.00 °C. Turning to `CCCCOCCOCCOCc1cc2c(cc1CCC)OCO2` [5-[2-(2-butoxyethoxy)ethoxymethyl]-6-propyl-1,3-benzodioxole], the flash point was found to be 171.00 °C. `C=Cc1ccc(C)nc1` [5-ethenyl-2-methylpyridine] had a flash point of 74.00 °C. Then `CC1CCC(C(C)C)C(O)C1` (stereo unspecified) [5-methyl-2-propan-2-ylcyclohexan-1-ol], with 91.00 °C; and `Cc1ccc(C(C)C)c(O)c1` [5-methyl-2-propan-2-ylphenol], with 110.00 °C; and `CCC(=O)CC(C)CC` (stereo unspecified) [5-methylheptan-3-one], with 43.00 °C. For the compound `CC1CCC(=O)O1` (stereo unspecified) [5-methyloxolan-2-one], the flash point is 81.00 °C.

As to `CC(=O)CCC=C(C)C` [6-methylhept-5-en-2-one], the flash point worked out at 57.00 °C. Consider `CC(C)CCCCCO` [6-methylheptan-1-ol], for which the flash point amounted to 82.00 °C. With `CC(C)CCCCCOC(=O)C(C)Oc1cc(Cl)c(Cl)cc1Cl` (stereo unspecified) [6-methylheptyl 2-(2,4,5-trichlorophenoxy)propanoate], the flash point was determined as 207.00 °C.

The compound `CC(C)CCCCCOC(=O)COc1ccc(Cl)cc1Cl` [6-methylheptyl 2-(2,4-dichlorophenoxy)acetate] had a flash point of 48.00 °C. The compound `C=CC(=O)OCCCCCC(C)C` [6-methylheptyl prop-2-enoate] yielded a flash point of 91.00 °C.

`CC(C)(C)CCCCCC(=O)O` [7,7-dimethyloctanoic acid] gave a flash point of 94.00 °C.

The compound `C=CC(=C)CCC=C(C)C` [7-methyl-3-methylideneocta-1,6-diene] registered a flash point of 39.00 °C.

`CC(C)CCCCCCCO` [8-methylnonan-1-ol] had a flash point of 104.00 °C. The compound `CC(C)CCCCCCC=O` [8-methylnonanal] came in with a flash point of 85.00 °C.

Consider `C=CC(=O)OCCCCCCCC(C)C` [8-methylnonyl prop-2-enoate], for which the flash point turned out to be 116.00 °C.

The compound `c1ccc2c(c1)[nH]c1ccccc12` [9H-carbazole] yielded a flash point of 220.00 °C. As for `c1ccc2c(c1)Cc1ccccc1-2` [9H-fluorene], the flash point was determined as 151.00 °C. Compound `c1ccc2c(c1)Nc1ccccc1S2` [10H-phenothiazine] registered a flash point of 202.00 °C. Consider `CC(=O)OC1CC2CCC1(C)C2(C)C` (stereo unspecified) [(1,7,7-trimethyl-2-bicyclo[2.2.1]heptanyl) acetate], for which the flash point came to 88.00 °C. Compound `CC1(C)C2CC[C@@]1(C)C(=O)C2` [(1R)-1,7,7-trimethylbicyclo[2.2.1]heptan-2-one] registered a flash point of 64.00 °C. Regarding `CC1(C)[C@@H]2CC[C@@]1(C)C(=O)C2` [(1R,4R)-1,7,7-trimethylbicyclo[2.2.1]heptan-2-one], the flash point was determined as 47.00 °C.

Turning to `CC1(C)[C@@H]2CC[C@]1(C)[C@H](O)C2` [(1S,2R,4R)-1,7,7-trimethylbicyclo[2.2.1]heptan-2-ol], the flash point came out at 66.00 °C. `CC(=O)OC1CC(C)OC(C)O1` (stereo unspecified) [(2,6-dimethyl-1,3-dioxan-4-yl) acetate] came in with a flash point of 61.00 °C.

In turn, `O=[N+]([O-])C(Br)=Cc1ccccc1` [(2-bromo-2-nitroethenyl)benzene] registered a flash point of 54.00 °C. `COc1ccc(C(=O)c2ccccc2)c(O)c1` [(2-hydroxy-4-methoxyphenyl)-phenylmethanone] registered a flash point of 100.00 °C.

Compound `C=C(C)C1CC=C(C)C(OC(C)=O)C1` (stereo unspecified) [(2-methyl-5-prop-1-en-2-ylcyclohex-2-en-1-yl) acetate] returned a flash point of 97.00 °C. Then `Cc1ccccc1OP(=O)(Oc1ccccc1)Oc1ccccc1` [(2-methylphenyl) diphenyl phosphate], with 232.00 °C; and `CC(C)=CCC/C(C)=C/CO` [(2E)-3,7-dimethylocta-2,6-dien-1-ol], with 108.00 °C; and `C=CC/C=C/C` [(4E)-hexa-1,4-diene], with -21.00 °C. In the case of `C=C(C)[C@H]1CC=C(C)C(=O)C1` [(5S)-2-methyl-5-prop-1-en-2-ylcyclohex-2-en-1-one], the flash point came to 89.00 °C.

`Cl/C=C/CCl` [(E)-1,3-dichloroprop-1-ene] had a flash point of 35.00 °C.

On to `Cc1cn(/C=C/C=O)c(=O)[nH]c1=O` [(E)-3-(5-methyl-2,4-dioxopyrimidin-1-yl)prop-2-enal], for which the flash point came out at 207.00 °C. As to `C/C=C/C=O` [(E)-but-2-enal], the flash point came out at 13.00 °C.

On to `CC/C=C/C#N` [(E)-pent-2-enenitrile], for which the flash point turned out to be 23.00 °C.

Compound `C/C=C/CC#N` [(E)-pent-3-enenitrile] returned a flash point of 38.00 °C.

In turn, `CSC(C)(C)/C=N/O` [(NE)-N-(2-methyl-2-methylsulfanylpropylidene)hydroxylamine] had a flash point of 118.00 °C.

`O=C1C=CCO1` [InChI=1S/C4H4O2/c5-4-2-1-3-6-4/h1-2H,3H2]: the flash point turned out to be 101.00 °C. With `CCN(CC)CCCN` [N',N'-diethylpropane-1,3-diamine] the figure was 59.00 °C. On to `CN(C)CCCN` [N',N'-dimethylpropane-1,3-diamine], for which the flash point was determined as 16.00 °C.

For the compound `NCCCNCCCN` [N'-(3-aminopropyl)propane-1,3-diamine], the flash point worked out at 79.00 °C. Then `NCCNCCNCCN` [N'-[2-(2-aminoethylamino)ethyl]ethane-1,2-diamine], with 135.00 °C; and `Cc1ccc(N(C)C)cc1` [N,N,4-trimethylaniline], with 76.00 °C; and `CCN(CC)C(=O)c1cccc(C)c1` [N,N-diethyl-3-methylbenzamide], with 155.00 °C. As for `CCN(CC)c1ccccc1` [N,N-diethylaniline], the flash point is 85.00 °C.

Regarding `CCN(CC)CC` [N,N-diethylethanamine], the flash point is -7.00 °C. As to `CCN(O)CC` [N,N-diethylhydroxylamine], the flash point was 45.00 °C. `CCN(CC)C(=O)c1cccnc1` [N,N-diethylpyridine-3-carboxamide] returned a flash point of 113.00 °C. The compound `CN(C)c1ccccc1` [N,N-dimethylaniline] displayed a flash point of 63.00 °C. With `CN(C)C(=O)Cl` [N,N-dimethylcarbamoyl chloride] the figure was 68.00 °C; with `c1ccc(N(c2ccccc2)c2ccccc2)cc1` [N,N-diphenylaniline], 180.00 °C.

Turning to `CC(=O)NCCO` [N-(2-hydroxyethyl)acetamide], the flash point worked out at 177.00 °C. Compound `CC(=O)Nc1ccc(C)cc1` [N-(4-methylphenyl)acetamide] showed a flash point of 168.00 °C. `CCCCCCCCCCCCCCCCCC(=O)NCCNC(=O)CCCCCCCCCCCCCCCCC` [N-[2-(octadecanoylamino)ethyl]octadecanamide] returned a flash point of 280.00 °C.

Take `CC(=O)Nc1ccc(C(=O)CCl)cc1` [N-[4-(2-chloroacetyl)phenyl]acetamide]: the flash point came to 110.00 °C. As for `CN(C)P(=O)(N(C)C)N(C)C` [N-[bis(dimethylamino)phosphoryl]-N-methylmethanamine], the flash point was 106.00 °C. `CCC(C)Nc1c([N+](=O)[O-])cc(C(C)(C)C)cc1[N+](=O)[O-]` (stereo unspecified) [N-butan-2-yl-4-tert-butyl-2,6-dinitroaniline] registered a flash point of 36.00 °C. Turning to `CCC(C)=NO` [N-butan-2-ylidenehydroxylamine], the flash point worked out at 59.00 °C. Compound `CCCCN(C(C)=O)c1ccccc1` [N-butyl-N-phenylacetamide] had a flash point of 141.00 °C. `CCCCN(CCC)N=O` [N-butyl-N-propylnitrous amide] yielded a flash point of 94.00 °C. For the compound `CCCC=NO` [N-butylidenehydroxylamine], the flash point came out at 58.00 °C. Consider `ClNc1ccccc1` [N-chloroaniline], for which the flash point came out at 108.00 °C. The compound `CCN(C)N=O` [N-ethyl-N-methylnitrous amide] showed a flash point of 76.00 °C.

For the compound `CCCCNC` [N-methylbutan-1-amine], the flash point came out at 13.00 °C. Consider `CNC=O` [N-methylformamide], for which the flash point is 98.00 °C. With `CNC` [N-methylmethanamine], the flash point is -7.00 °C.

On to `CC(=O)Nc1ccccc1` [N-phenylacetamide], for which the flash point stood at 174.00 °C. Consider `CC(C)NC(C)C` [N-propan-2-ylpropan-2-amine], for which the flash point was -1.00 °C. `CCCNCCC` [N-propylpropan-1-amine]: the flash point was found to be 17.00 °C.

`CCSC(=O)N(CC)C1CCCCC1` [S-ethyl N-cyclohexyl-N-ethylcarbamothioate] had a flash point of 139.00 °C. `CCSC(=O)Cl` [S-ethyl chloromethanethioate] registered a flash point of 31.00 °C. With `CCCSC(=O)N(CCC)CCC` [S-propyl N,N-dipropylcarbamothioate] the figure was 122.00 °C; with `CCCSC(=O)Cl` [S-propyl chloromethanethioate], 62.00 °C; with `C#CCOS(=O)OC1CCCCC1Oc1ccc(C(C)(C)C)cc1` (stereo unspecified) [[2-(4-tert-butylphenoxy)cyclohexyl] prop-2-ynyl sulfite], 28.00 °C. `OCC1CCC(CO)CC1` (stereo unspecified) [[4-(hydroxymethyl)cyclohexyl]methanol] returned a flash point of 166.00 °C. `C/C=C/c1ccccc1` [[(E)-prop-1-enyl]benzene] showed a flash point of 52.00 °C. On to `C[Si](C)(C)N[Si](C)(C)C` [[dimethyl-(trimethylsilylamino)silyl]methane], for which the flash point was 9.00 °C. With `CC(=O)OC(C)=O` [acetyl acetate] the figure was 49.00 °C; with `CC(=O)Br` [acetyl bromide], 75.00 °C.

Source of the values: a flash point compilation (Sun et al. 2020).
